Results: ChEMBL document CHEMBL3045325, “Comparative Studies of Elicitors That Induce Phytoalexin in Oats” (1996)
Activity calls are given as the source filed them. No cut-off for these calls is given here.

Experiments:
Avena sativa [1] = test: Induction of phytoalexin secretion in Avena sativa Shokan-1 leaf lower epidermis assessed as amount of avenanthramide D at 0.1 mg/ml by HPLC analysis relative to control; type: functional
Avena sativa [2] = test: Induction of phytoalexin secretion in Avena sativa Pc-2 leaf lower epidermis assessed as amount of avenanthramide A at 0.1 mg/ml by HPLC analysis relative to control; type: functional, organism-based
Avena sativa [3] = test: Induction of phytoalexin secretion in Avena sativa Pc-2 leaf lower epidermis assessed as amount of avenanthramide D at 0.1 mg/ml by HPLC analysis relative to control; type: functional, organism-based
Avena sativa [4] = test: Induction of phytoalexin secretion in Avena sativa Shokan-1 leaf lower epidermis assessed as amount of avenanthramide G at 0.1 mg/ml by HPLC analysis relative to control; type: functional
Avena sativa [5] = test: Induction of electrolyte leakage in Avena sativa Shokan-1 leaf lower epidermis at 0.1 mg/ml after 24 hr by conductivity test; type: functional, organism-based
Avena sativa [6] = test: Induction of phytoalexin secretion in Avena sativa Shokan-1 leaf lower epidermis assessed as amount of avenanthramide L at 0.1 mg/ml by HPLC analysis relative to control; type: functional
Avena sativa [7] = test: Induction of phytoalexin secretion in Avena sativa Shokan-1 leaf lower epidermis assessed as amount of avenanthramide B at 0.1 mg/ml by HPLC analysis relative to control; type: functional
Avena sativa [8] = test: Induction of phytoalexin secretion in Avena sativa Pc-2 leaf lower epidermis assessed as amount of avenanthramide B at 0.1 mg/ml by HPLC analysis relative to control; type: functional, organism-based
Avena sativa [9] = test: Induction of phytoalexin secretion in Avena sativa Shokan-1 leaf lower epidermis assessed as amount of avenanthramide A at 0.1 mg/ml by HPLC analysis relative to control; type: functional
Avena sativa [10] = test: Induction of phytoalexin secretion in Avena sativa Pc-2 leaf lower epidermis assessed as amount of avenanthramide L at 0.1 mg/ml by HPLC analysis relative to control; type: functional, organism-based
Avena sativa [11] = test: Induction of phytoalexin avenanthramide A secretion in Avena sativa Shokan-1 leaf lower epidermis at 0.1 mg/ml after 24 hr in presence of CaCl2; type: functional, organism-based
Avena sativa [12] = test: Induction of phytoalexin secretion in Avena sativa Pc-2 leaf lower epidermis assessed as amount of avenanthramide G at 0.1 mg/ml by HPLC analysis relative to control; type: functional, organism-based
Avena sativa [13] = test: Induction of phytoalexin avenanthramide A secretion in Avena sativa Pc-2 leaf lower epidermis at 100 ng/ml after 24 hr; type: functional, organism-based
Avena sativa [14] = test: Induction of phytoalexin secretion in Avena sativa Pc-2 leaf lower epidermis assessed as amount of avenanthramide D at 1 ng/ml by HPLC analysis relative to control; type: functional
Avena sativa [15] = test: Induction of phytoalexin avenanthramide A secretion in Avena sativa Pc-2 leaf lower epidermis at 1 ng/ml after 24 hr in presence of CaCl2; type: functional, organism-based
Avena sativa [16] = test: Induction of phytoalexin secretion in Avena sativa Pc-2 leaf lower epidermis assessed as amount of avenanthramide L at 1 ng/ml by HPLC analysis relative to control; type: functional
Avena sativa [17] = test: Induction of electrolyte leakage in Avena sativa Pc-2 leaf lower epidermis at 1 ng/ml after 24 hr in presence of CaCl2; type: functional, organism-based
Avena sativa [18] = test: Induction of phytoalexin secretion in Avena sativa Pc-2 leaf lower epidermis assessed as amount of avenanthramide G at 1 ng/ml by HPLC analysis relative to control; type: functional
Avena sativa [19] = test: Induction of phytoalexin secretion in Avena sativa Pc-2 leaf lower epidermis assessed as amount of avenanthramide A at 1 ng/ml by HPLC analysis relative to control; type: functional
Avena sativa [20] = test: Induction of electrolyte leakage in Avena sativa Pc-2 leaf lower epidermis at 1 ng/ml after 24 hr by conductivity test; type: functional, organism-based
Avena sativa [21] = test: Induction of phytoalexin avenanthramide A secretion in Avena sativa Pc-2 leaf lower epidermis at 5 mg/ml after 24 hr; type: functional, organism-based
Avena sativa [22] = test: Induction of phytoalexin secretion in Avena sativa Shokan-1 leaf lower epidermis assessed as amount of avenanthramide G at 1 mg/ml by HPLC analysis relative to control; type: functional
Avena sativa [23] = test: Induction of phytoalexin secretion in Avena sativa Shokan-1 leaf lower epidermis assessed as amount of avenanthramide D at 1 mg/ml by HPLC analysis relative to control; type: functional
Avena sativa [24] = test: Induction of phytoalexin secretion in Avena sativa Shokan-1 leaf lower epidermis assessed as amount of avenanthramide A at 1 mg/ml by HPLC analysis relative to control; type: functional
Avena sativa [25] = test: Induction of phytoalexin secretion in Avena sativa Pc-2 leaf lower epidermis assessed as amount of avenanthramide B at 1 mg/ml by HPLC analysis relative to control; type: functional, organism-based
Avena sativa [26] = test: Induction of phytoalexin secretion in Avena sativa Pc-2 leaf lower epidermis assessed as amount of avenanthramide D at 1 mg/ml by HPLC analysis relative to control; type: functional, organism-based
Avena sativa [27] = test: Induction of phytoalexin secretion in Avena sativa Shokan-1 leaf lower epidermis assessed as amount of avenanthramide L at 1 mg/ml by HPLC analysis relative to control; type: functional
Avena sativa [28] = test: Induction of phytoalexin secretion in Avena sativa Pc-2 leaf lower epidermis assessed as amount of avenanthramide A at 1 mg/ml by HPLC analysis relative to control; type: functional, organism-based
Avena sativa [29] = test: Induction of electrolyte leakage in Avena sativa Shokan-1 leaf lower epidermis at 1 mg/ml after 24 hr by conductivity test; type: functional, organism-based
Avena sativa [30] = test: Induction of phytoalexin secretion in Avena sativa Pc-2 leaf lower epidermis assessed as amount of avenanthramide L at 1 mg/ml by HPLC analysis relative to control; type: functional, organism-based
Avena sativa [31] = test: Induction of phytoalexin avenanthramide A secretion in Avena sativa Shokan-1 leaf lower epidermis at 1 mg/ml upto 24 hr; type: functional, organism-based
Avena sativa [32] = test: Induction of phytoalexin avenanthramide A secretion in Avena sativa Shokan-1 leaf lower epidermis at 1 mg/ml after 24 hr; type: functional, organism-based
Avena sativa [33] = test: Induction of phytoalexin secretion in Avena sativa Pc-2 leaf lower epidermis assessed as amount of avenanthramide G at 1 mg/ml by HPLC analysis relative to control; type: functional, organism-based
Avena sativa [34] = test: Induction of phytoalexin avenanthramide A secretion in Avena sativa Shokan-1 leaf lower epidermis at 1 mg/ml after 24 hr in presence of CaCl2; type: functional, organism-based
Avena sativa [35] = test: Induction of phytoalexin secretion in Avena sativa Shokan-1 leaf lower epidermis assessed as amount of avenanthramide B at 1 mg/ml by HPLC analysis relative to control; type: functional

Q: What does the source list for `N[C@H]1[C@H](O[C@H]2[C@H](O)[C@@H](N)[C@H](O[C@H]3[C@H](O)[C@@H](N)[C@H](O[C@H]4[C@H](O)[C@@H](N)[C@H](O[C@H]5[C@H](O)[C@@H](N)C(O)O[C@@H]5CO)O[C@@H]4CO)O[C@@H]3CO)O[C@@H]2CO)O[C@H](CO)[C@@H](O)[C@@H]1O` (stereo not given in full) [CHITOPENTAOSE]?
A: fold change (FC) (Avena sativa [1]): 10.7; Activity (Avena sativa [2]): inactive; Activity (Avena sativa [3]): inactive; fold change (FC) (Avena sativa [4]): 13; Activity (Avena sativa [5]): Active; fold change (FC) (Avena sativa [6]): 1.4; fold change (FC) (Avena sativa [7]): 3.4; Activity (Avena sativa [8]): inactive; fold change (FC) (Avena sativa [9]): 100; Activity (Avena sativa [10]): inactive; Activity (Avena sativa [11]): inactive; Activity (Avena sativa [12]): inactive

Q: How did the Activity (Avena sativa [13]) turn out when `CC(C)C1OC2=C(CC(C(=O)O)NC(=O)/C(=C/Cl)NC(=O)C1NC(=O)C(NC(=O)C(CC(C)C(Cl)Cl)NC(=O)C(O)O)C(O)CCCN)C(=O)CC2` (stereo not given) [VICTORIN D] was run?
A: Active

Q: And the “fold change (FC)” value (Avena sativa [14])?
A: 38.4

Q: What about the Activity (Avena sativa [15]) of the same compound?
A: inactive

Q: What about the “fold change (FC)” value (Avena sativa [16]) of the same compound?
A: 3

Q: And the Activity (Avena sativa [17])?
A: inactive

Q: What about the “fold change (FC)” value (Avena sativa [18]) of the same compound?
A: 84.6

Q: What about the “fold change (FC)” value (Avena sativa [19]) of the same compound?
A: 100

Q: What about the Activity (Avena sativa [20]) of the same compound?
A: Active

Q: And the Activity (Avena sativa [21])?
A: inactive

Q: With `CC(=O)N[C@H]1[C@H](O[C@H]2[C@H](O)[C@@H](NC(C)=O)[C@H](O[C@H]3[C@H](O)[C@@H](NC(C)=O)C(O)O[C@@H]3CO)O[C@@H]2CO)O[C@H](CO)[C@@H](O[C@@H]2O[C@H](CO)[C@@H](O[C@@H]3O[C@H](CO)[C@@H](O)[C@H](O)[C@H]3NC(C)=O)[C@H](O)[C@H]2NC(C)=O)[C@@H]1O` (stereo not given in full) [N-ACETYLCHITOPENTAOSE] as the compound, how does the “fold change (FC)” value (Avena sativa [22]) read?
A: 2.8

Q: What about the “fold change (FC)” value (Avena sativa [23]) of the same compound?
A: 1.9

Q: And the “fold change (FC)” value (Avena sativa [24])?
A: 100

Q: And the Activity (Avena sativa [25])?
A: inactive

Q: What about the Activity (Avena sativa [26]) of the same compound?
A: inactive

Q: And the “fold change (FC)” value (Avena sativa [27])?
A: 20.4

Q: What about the Activity (Avena sativa [28]) of the same compound?
A: inactive

Q: And the Activity (Avena sativa [29])?
A: inactive

Q: And the Activity (Avena sativa [30])?
A: inactive

Q: What about the Activity (Avena sativa [31]) of the same compound?
A: Active

Q: What about the Activity (Avena sativa [32]) of the same compound?
A: inactive

Q: What about the Activity (Avena sativa [33]) of the same compound?
A: inactive

Q: What about the Activity (Avena sativa [34]) of the same compound?
A: inactive

Q: And the “fold change (FC)” value (Avena sativa [35])?
A: 26
